We go through 26 molecules from patent US20260217732A1, “WRN INHIBITOR” (SUZHOU PUHE BIOPHARMA CO., LTD., priority 2022, published 2026).

Each structure is given as a SMILES string. Where only a bound is given, the exact number is not on record here.

One assay has as its target T1, WRN enzyme (Homo sapiens, UniProt Q14191).
T1 construct: 10 μL (2×) of WRN enzyme solution was added
As to the kind of experiment: WRN helicase hydrolysis (unwinding) of double-stranded DNA, fluorescence assay. Particulars: 30 min pre-incubation, 60 min reaction. The format is biochemical. How it is done: • The molecules of the present disclosure were tested for their activities on the WRN helicase hydrolysis of double-stranded DNA (Table 1).
A working solution to be tested and a buffer were prepared. The compound to be tested was dissolved in DMSO and subjected to 4× dilution (with 10 μM final concentration as the starting concentration). 0.2 μL of the solution of the compound to be tested was added to the 384-well plate and 10 μL (2×) of WRN enzyme solution was added. The solution was incubated in the dark for 30 minutes. Then, 10 μL of a substrate detection solution containing double-stranded DNA was added to initiate the reaction (the DNA has a length of 19 bp, and labeled with TAMRA and BHQ2 at 3′ and 5′-ends, respectively). The solution was incubated at room temperature for 60 minutes. The inhibitory activities (IC50) against WRN enzyme were calculated based on the change of Ex530/Em590 in the blank group (DMSO) and the compound group.

The test system of assay [1] is SW48 colorectal cancer cells. Put plainly: 2D antiproliferation on MSI-H SW48 cells, CTG, 5 days. The format is cell-based. The following applies: Homo sapiens, 120 h; SW48 MSI-H, 5 days. On the procedure: The molecules of the present disclosure were tested for their anti-proliferative activity on MSI-H tumor cells.
SW48 colorectal cancer cells with MSI were cultured in a RMI1640 medium containing 10% FBS and 1% penicillin-streptomycin, and the mixture was cultured in a 37° C., 5% CO2 incubator. 40 μL of cell suspension was added to each well of a 384-well microplate. […] of compounds with different concentrations were added to each well using Echo, and the mixtures were cultured in a 37° C., 5% CO2 incubator for 5 days. 40 μL of CTG solution (Promega, Cat No. G7573) was added to each well and incubated in a 37° C., 5% CO2 incubator in the dark for 30 minutes. The luminescence value was read using an Envision multi-function microplate reader (Perkin Elmer, catalog number Envision 2104). The optical signal is proportional to the amount of ATP in the system, while the ATP content directly characterizes the number of viable cells in the system.

In assay [2] the test system is HT-29 colorectal cancer cells. Put plainly: 2D antiproliferation on MSS HT-29 cells, CTG, 5 days. The format is cell-based. Particulars: Homo sapiens, 120 h, HT-29 MSS. How it is done: The molecules of the invention were tested for their anti-proliferative activities on MSS tumor cells.
HT-29 colorectal cancer cells with MSS were cultured in a McCoy's 5A medium containing 10% FBS and 1% penicillin-streptomycin in a 37° C., 5% CO2 constant temperature incubator. 40 μL of cell suspension was added to each well of a 384-well microplate. […] of compounds with different concentrations were added to each well using Echo. The mixtures were cultured in a 37° C., 5% CO2 constant temperature incubator for 5 days. 40 μL of CTG solution (Promega, Cat No. G7573) was added to each well, and the mixture was incubated in a 37° C., 5% CO2 constant temperature incubator for 30 minutes in the dark. The luminescence value was read using an Envision multi-function microplate reader (Perkin Elmer, catalog number Envision 2104). The optical signal is proportional to the amount of ATP in the system, while the ATP content directly characterizes the number of viable cells in the system.

T1 sequence (Q14191 whole entry): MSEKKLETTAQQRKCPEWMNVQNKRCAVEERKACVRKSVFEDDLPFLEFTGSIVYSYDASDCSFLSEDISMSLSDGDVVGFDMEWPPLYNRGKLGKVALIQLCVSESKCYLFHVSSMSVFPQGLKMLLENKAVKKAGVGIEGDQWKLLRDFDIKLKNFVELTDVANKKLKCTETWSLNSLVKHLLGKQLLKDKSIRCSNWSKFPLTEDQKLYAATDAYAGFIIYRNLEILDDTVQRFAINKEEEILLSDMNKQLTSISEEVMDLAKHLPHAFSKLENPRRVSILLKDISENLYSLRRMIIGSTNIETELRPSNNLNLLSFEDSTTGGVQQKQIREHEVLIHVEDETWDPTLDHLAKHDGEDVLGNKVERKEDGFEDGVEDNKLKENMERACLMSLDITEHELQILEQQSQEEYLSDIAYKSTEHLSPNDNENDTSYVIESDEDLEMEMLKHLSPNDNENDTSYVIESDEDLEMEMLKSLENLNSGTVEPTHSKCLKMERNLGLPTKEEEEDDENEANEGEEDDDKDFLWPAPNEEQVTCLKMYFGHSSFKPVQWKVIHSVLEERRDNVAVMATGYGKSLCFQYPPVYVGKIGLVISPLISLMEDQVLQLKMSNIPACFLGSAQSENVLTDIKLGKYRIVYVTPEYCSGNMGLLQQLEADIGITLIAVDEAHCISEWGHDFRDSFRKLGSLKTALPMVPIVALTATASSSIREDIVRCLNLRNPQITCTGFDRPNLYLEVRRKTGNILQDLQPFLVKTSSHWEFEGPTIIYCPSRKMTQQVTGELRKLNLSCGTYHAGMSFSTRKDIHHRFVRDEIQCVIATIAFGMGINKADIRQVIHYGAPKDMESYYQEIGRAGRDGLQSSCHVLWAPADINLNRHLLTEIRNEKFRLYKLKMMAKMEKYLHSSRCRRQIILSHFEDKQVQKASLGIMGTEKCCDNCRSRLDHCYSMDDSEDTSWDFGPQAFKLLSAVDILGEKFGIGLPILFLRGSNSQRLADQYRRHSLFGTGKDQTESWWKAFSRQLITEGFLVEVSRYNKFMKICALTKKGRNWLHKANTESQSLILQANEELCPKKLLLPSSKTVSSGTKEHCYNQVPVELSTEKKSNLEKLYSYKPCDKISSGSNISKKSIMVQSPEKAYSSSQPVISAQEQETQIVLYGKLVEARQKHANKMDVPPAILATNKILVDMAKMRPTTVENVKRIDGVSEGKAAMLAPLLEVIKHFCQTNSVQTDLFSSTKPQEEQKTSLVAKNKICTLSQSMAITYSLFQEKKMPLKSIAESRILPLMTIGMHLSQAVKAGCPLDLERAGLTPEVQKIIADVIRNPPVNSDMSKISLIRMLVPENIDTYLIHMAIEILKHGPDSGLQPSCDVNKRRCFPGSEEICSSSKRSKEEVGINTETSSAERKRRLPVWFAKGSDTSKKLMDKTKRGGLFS

For `CCc1c(N2CC[C@@H](NC(=O)c3ncnc(C)c3O)C2)c(=O)n2nc(C3=CCOCC3)nc2n1CC(=O)Nc1ccc(C(F)(F)F)cc1Cl` [P2], the half-inhibitory concentration (IC50) against WRN enzyme worked out at 2.3 nM; in assay [1], 1110 nM.
On to `CCc1c(N2CCN(C(=O)c3ncccc3O)CC2)c(=O)n2nc(-c3cncs3)nc2n1CC(=O)Nc1ccc(C(F)(F)F)cc1Cl` [P5], for which the values for the concentration for half-maximal inhibition (IC50) (in assay [2]; at WRN enzyme) were greater than 10000 nM and 1.6 nM, respectively.
For the molecule `CCc1c(N2CCN(C(=O)c3ncccc3O)CC2)c(=O)n2nc(-c3sccc3N)nc2n1CC(=O)Nc1ccc(C(F)(F)F)cc1Cl` [P8], the half-maximal inhibitory concentration (IC50) at WRN enzyme stood at 3.7 nM; in assay [1] it was 566 nM.
Consider `CCc1c(N2CCN(C(=O)c3ncccc3O)CC2)c(=O)n2nc(-c3ccc(COC)s3)nc2n1CC(=O)Nc1ccc(C(F)(F)F)cc1Cl` [P10], for which the half-maximal inhibitory concentration (IC50) in assay [2] is greater than 10000 nM; against WRN enzyme, 2.1 nM; in assay [1] it was 125 nM.
The matching figures for `CCc1c(N2CCN(C(=O)c3ncccc3O)CC2)c(=O)n2nc(-c3cnc(CO)s3)nc2n1CC(=O)Nc1ccc(C(F)(F)F)cc1Cl` [P11]: greater than 10000 nM, 1.7 nM and 127 nM.
On to `CCc1c(N2CCN(C(=O)c3ncccc3O)CC2)c(=O)n2nc(-c3cnc(C(C)=O)s3)nc2n1CC(=O)Nc1ccc(C(F)(F)F)cc1Cl` [P12], for which the results for the concentration for half-maximal inhibition (IC50) (in assay [2]; on WRN enzyme; in assay [1]) were greater than 10000 nM, 9.4 nM and 450 nM, respectively.
The matching figures for `CCc1c(N2CCN(C(=O)c3ncccc3O)CC2)c(=O)n2nc(-c3cc4cn[nH]c4s3)nc2n1CC(=O)Nc1ccc(C(F)(F)F)cc1Cl` [P13]: 9110 nM, 2.2 nM and 72 nM.
The matching figures for `CCc1c(N2CCN(C(=O)c3ncccc3O)CC2)c(=O)n2nc(-c3[nH]nc4sccc34)nc2n1CC(=O)Nc1ccc(C(F)(F)F)cc1Cl` [P14]: greater than 10000 nM, 4.4 nM and 97 nM.
For `CCc1c(N2CCN(C(=O)c3ncccc3O)CC2)c(=O)n2nc(-c3ccc(C(C)=O)s3)nc2n1CC(=O)Nc1ccc(C(F)(F)F)cc1Cl` [P15], the 50% inhibitory concentration (IC50) in assay [2] was greater than 10000 nM; against WRN enzyme, 1.6 nM; in assay [1], 381 nM.
Turning to `CCc1c(N2CCN(C(=O)c3ncccc3O)CC2)c(=O)n2nc(-c3cc4cnn(C)c4s3)nc2n1CC(=O)Nc1ccc(C(F)(F)F)cc1Cl` [P16], the IC50 was greater than 10000 nM in assay [2], 2.1 nM at WRN enzyme and 120 nM in assay [1].
The matching figures for `CCc1c(N2CCN(C(=O)c3ncccc3O)CC2)c(=O)n2nc(-c3cc4ccncc4s3)nc2n1CC(=O)Nc1ccc(C(F)(F)F)cc1Cl` [P17]: greater than 10000 nM, 2.3 nM and 360 nM.
With `CCc1c(N2CCN(C(=O)c3ncccc3O)CC2)c(=O)n2nc(-c3cc4cnccc4s3)nc2n1CC(=O)Nc1ccc(C(F)(F)F)cc1Cl` [P18], the results for the IC50 (in assay [2]; against WRN enzyme; in assay [1]) were 4870 nM, 1.8 nM and 499 nM, respectively.
In the case of `CCc1c(N2CCN(C(=O)c3ncccc3O)CC2)c(=O)n2nc(-c3cc4c(s3)COC4)nc2n1CC(=O)Nc1ccc(C(F)(F)F)cc1Cl` [P20], the half-maximal inhibitory concentration (IC50) in assay [2] is greater than 10000 nM; against WRN enzyme, 1.6 nM; in assay [1], 126 nM.
On to `CCc1c(N2CCN(C(=O)c3ncccc3O)CC2)c(=O)n2nc(-c3ccc4c(c3)OCO4)nc2n1CC(=O)Nc1ccc(C(F)(F)F)cc1Cl` [P21], for which the results for the 50% inhibitory concentration (IC50) (in assay [2]; against WRN enzyme; in assay [1]) were greater than 10000 nM, 3.3 nM and 480 nM, respectively.
Turning to `CCc1c(N2CCN(C(=O)c3ncnc(C)c3O)CC2)c(=O)n2nc(-c3cc4c(s3)COC4)nc2n1CC(=O)Nc1ccc(Br)cc1C` [P25], the values for the concentration for half-maximal inhibition (IC50) (in assay [2]; at WRN enzyme; in assay [1]) were greater than 10000 nM, 1.7 nM and 39 nM, respectively.
The matching figures for `CCc1c(N2CCN(C(=O)c3ncnc(C)c3O)CC2)c(=O)n2nc(-c3cc4c(s3)COC4)nc2n1CC(=O)Nc1ccc(C(F)(F)F)cc1F` [P32]: greater than 10000 nM, 1.5 nM and 126 nM.
In the same order, the values of `CCc1c(N2CCN(C(=O)c3ncccc3O)CC2)c(=O)n2nc(-c3cnc(COC)s3)nc2n1CC(=O)Nc1ccc(C(F)(F)F)cc1Cl` [P33] are greater than 10000 nM, 1.8 nM and 139 nM.
For the molecule `CCc1c(N2CCN(C(=O)c3ncccc3O)CC2)c(=O)n2nc(-c3c[nH]c4ncncc34)nc2n1CC(=O)Nc1ccc(C(F)(F)F)cc1Cl` [P41], the IC50 in assay [2] worked out at 5590 nM; in assay [1] it was 2080 nM.
As for `CCc1c(N2CCN(C(=O)c3ncnc(C)c3O)CC2)c(=O)n2nc(-c3cc4cncnc4s3)nc2n1CC(=O)Nc1ccc(C(F)(F)F)cc1Cl` [P42], the 50% inhibitory concentration (IC50) in assay [2] was greater than 10000 nM; in assay [1], 620 nM.
The matching figures for `CCc1c(N2CCN(C(=O)c3ncnc(C)c3O)CC2)c(=O)n2nc(-c3cc4cncnc4[nH]3)nc2n1CC(=O)Nc1ccc(C(F)(F)F)cc1Cl` [P44]: greater than 10000 nM and greater than 10000 nM.
In the same order, the values of `CCc1c(N2CCN(C(=O)c3ncnc(C)c3O)CC2)c(=O)n2nc(-c3cc4n(c3)CCOC4)nc2n1CC(=O)Nc1ccc(C(F)(F)F)cc1Cl` [P45] are greater than 10000 nM and 54 nM.
For the molecule `CCc1c(N2CCN(C(=O)c3ncnc(C)c3O)CC2)c(=O)n2nc(-c3ccc4nccn4c3)nc2n1CC(=O)Nc1ccc(C(F)(F)F)cc1F` [P46], the results for the half-maximal inhibitory concentration (IC50) in assay [2] and in assay [1] were greater than 10000 nM and 452 nM, respectively.
Regarding `CCc1c(N2CCN(C(=O)c3ncnc(C)c3O)CC2)c(=O)n2nc(-c3ccc4nccn4c3)nc2n1CC(=O)Nc1ccc(C(F)(F)F)cc1C` [P47], the figures for the IC50 in assay [2] and in assay [1] were greater than 10000 nM and 480 nM, respectively.
Turning to `CCc1c(N2CCN(C(=O)c3ncnc(C)c3O)CC2)c(=O)n2nc(-c3cc4cn[nH]c4s3)nc2n1CC(=O)Nc1ccc(C(F)(F)F)cc1C` [P50], the half-inhibitory concentration (IC50) in assay [2] is greater than 10000 nM; in assay [1], 162 nM.
The matching figures for `CCc1c(N2CCN(C(=O)c3ncnc(C)c3O)[C@H](C)C2)c(=O)n2nc(-c3cc4c(s3)COC4)nc2n1CC(=O)Nc1ccc(C(F)(F)F)cc1C` [P53]: greater than 10000 nM and 55 nM.
Turning to `CCc1c(N2CCN(C(=O)c3ncccc3O)CC2)c(=O)n2nc(-c3cc4c(s3)COC4)nc2n1CC(=O)Nc1ccc(C(F)(F)F)c2ccsc12` [P58], the results for the IC50 (in assay [2]; at WRN enzyme; in assay [1]) were greater than 10000 nM, 2.9 nM and 123 nM, respectively.

Broadly, the IC50 is the midpoint of a concentration-inhibition curve.
